Test [1] deals with T1, β-glucosidase in Sechium edule (Sebg; chayotase).
T1 construct: native purification from fruit pulp (epicarp and mesocarp); homodimer 116 kDa, 58 kDa subunits; tryptic peptides MGFDAYR, FSIAWSR, WFENFLK, DFSEVCFK, EAMQAGVRVK, FGLTYIDYK, NNLK
As to the kind of experiment: p-nitrophenol release, […] nm; Michaelis-Menten nonlinear fit. It is filed as biochemical. Particulars: standard assay: sodium citrate 0.2 M, pH 5.0, 25 °C.

Test [2] has as its target β-glucosidase from chayote (Sechium edule) (Sechium edule). As to the kind of experiment: native gel or EMSA; native PAGE on 5%, 7.5%, 10% and 12.5% polyacrylamide gels, pH 8.3, Hedrick and Smith method; native mass 116 kDa compared with the 58 kDa subunit on SDS-PAGE. A general note: In EMSA bound probe runs differently from free probe, usually more slowly.

Broadly, the Km is the substrate concentration at which the rate is half of its maximum. On to `O=[N+]([O-])c1ccc(O[C@@H]2O[C@H](CO)[C@@H](O)[C@H](O)[C@H]2O)cc1` [p-nitrophenyl-β-D-glucopyranoside], for which the Km in test [1] was determined as 4.88 mM.

By stoichiometry N is commonly meant the number of molecules, sites or subunits per partner or assembly. On to “β-glucosidase from chayote (Sechium edule) (enzyme)”, for which the stoichiometry N in test [2] was determined as 2.

For the origin of these results see paper PMC6332095, “Purification and Partial Characterization of β-Glucosidase in Chayote (Sechium edule)” (Molecules, 2015).
